By EC50 is commonly meant the concentration at which the effect is half-maximal. Read a low EC50 as greater potency.

Bounds are passed on as bounds.

The assay addresses T1, human TLR7 (Homo sapiens, UniProt Q9NYK1).
T1 construct: host or cells: HEK293 (HEK-Blue hTLR7)
T1 sequence (Q9NYK1 27-1049): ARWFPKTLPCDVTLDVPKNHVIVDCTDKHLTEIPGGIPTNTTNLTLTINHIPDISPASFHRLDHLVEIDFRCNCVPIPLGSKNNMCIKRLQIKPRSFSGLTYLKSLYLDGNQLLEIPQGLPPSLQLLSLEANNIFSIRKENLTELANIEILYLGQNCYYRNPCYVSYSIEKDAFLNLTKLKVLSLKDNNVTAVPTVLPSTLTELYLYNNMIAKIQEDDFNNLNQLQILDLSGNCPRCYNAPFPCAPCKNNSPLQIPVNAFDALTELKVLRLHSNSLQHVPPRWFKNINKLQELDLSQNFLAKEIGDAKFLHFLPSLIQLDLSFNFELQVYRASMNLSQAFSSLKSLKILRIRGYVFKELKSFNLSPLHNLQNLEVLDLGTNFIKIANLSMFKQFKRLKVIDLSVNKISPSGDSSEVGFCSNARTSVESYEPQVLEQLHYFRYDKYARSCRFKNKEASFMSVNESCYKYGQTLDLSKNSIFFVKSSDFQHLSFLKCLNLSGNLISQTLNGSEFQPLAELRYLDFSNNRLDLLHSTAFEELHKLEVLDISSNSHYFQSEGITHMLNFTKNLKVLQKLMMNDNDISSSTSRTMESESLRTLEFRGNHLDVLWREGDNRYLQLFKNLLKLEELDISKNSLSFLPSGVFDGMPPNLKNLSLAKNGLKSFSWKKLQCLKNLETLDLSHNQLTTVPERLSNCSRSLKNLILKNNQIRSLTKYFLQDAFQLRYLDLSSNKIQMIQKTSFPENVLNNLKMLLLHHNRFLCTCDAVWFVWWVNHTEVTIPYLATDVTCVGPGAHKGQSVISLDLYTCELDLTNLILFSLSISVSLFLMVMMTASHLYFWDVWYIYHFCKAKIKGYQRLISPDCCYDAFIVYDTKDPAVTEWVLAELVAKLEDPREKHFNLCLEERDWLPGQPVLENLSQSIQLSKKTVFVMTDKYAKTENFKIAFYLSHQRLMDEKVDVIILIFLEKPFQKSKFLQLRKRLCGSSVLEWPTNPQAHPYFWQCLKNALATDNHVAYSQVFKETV
Briefly: HEK293-Blue hTLR7 Reporter Assay (QUANTI-BLUE, SEAP readout). Type of assay: cell-based. As to conditions: HEK-Blue-hTLR7 cells, 24 hrs treatment, Table 1, B1-B232. The procedure, abridged: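 Compound titrations were applied for 24 h at 37° C to reporter HEK293 cells (4×10^4 per well) in which human TLR7 activation drives secreted alkaline phosphatase. Supernatants reacted with Quanti-blue 10-30 min, absorbance read at 620-655 nm, and EC50 derived by sigmoidal curve fitting.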
Consider `CCCCNc1nc(N)c2ncc(Cc3cnc(N4CCC(N)CC4)c(C)c3)n2n1` [Compound B88, 7-((6-(4-aminopiperidin-1-yl)-5-methylpyridin-3-yl)methyl)-N2-butylimidazo[2,1-f][1,2,4]triazine-2,4-diamine], for which the 50% effective concentration (EC50) came to 61 nM.
`CCCCOc1nc(N)c2ncc(Cc3cnc(N4CCN(S(=O)(=O)CCC)CC4)c(C)c3)n2n1` [Compound B89, 2-butoxy-7-((5-methyl-6-(4-(propylsulfonyl)piperazin-1-yl)pyridin-3-yl)methyl)imidazo[2,1-f][1,2,4]triazin-4-amine] returned an EC50 above 10000 nM.
With `CCCCOc1nc(N)c2ncc(Cc3ccc(N4CCNCC4)c(C(C)C)c3)n2n1` [Compound B90, 2-butoxy-7-(3-isopropyl-4-(piperazin-1-yl)benzyl)imidazo[2,1-f][1,2,4]triazin-4-amine], the EC50 amounted to 2360 nM.
The figure for `CCCCOc1nc(N)c2ncc(Cc3cnc(N4CCN(CCN)CC4)c(C)c3)n2n1` [Compound B91, 7-((6-(4-(2-aminoethyl)piperazin-1-yl)-5-methylpyridin-3-yl)methyl)-2-butoxyimidazo[2,1-f][1,2,4]triazin-4-amine] is 150 nM; for `CCCCOc1nc(N)c2ncc(Cc3ccc(N4CCNCC4)c(CC)c3)n2n1` [Compound B92, 2-butoxy-7-(3-ethyl-4-(piperazin-1-yl)benzyl)imidazo[2,1-f][1,2,4]triazin-4-amine] it is 464 nM.
The figure for `CCCOc1nc(N)c2ncc(Cc3cnc(N4CCNCC4)c(C)c3)n2n1` [Compound B93, 7-((5-methyl-6-(piperazin-1-yl)pyridin-3-yl)methyl)-2-propoxyimidazo[2,1-f][1,2,4]triazin-4-amine] is 641 nM; for `CCCC(C)Oc1nc(N)c2ncc(Cc3cnc(N4CCN(C(=O)CN(C)C)CC4)c(C)c3)n2n1` (stereo not drawn) [Compound B94, 1-(4-(5-((4-amino-2-(pentan-2-yloxy)imidazo[2,1-f] [1,2,4]triazin-7-yl)methyl)-3-methylpyridin-2-yl)piperazin-1-yl)-2-(dimethylamino)ethan-1-one] it is 13 nM.
Under `CCCCOc1nc(N)c2ncc(Cc3cnc(N4CCC(C(=O)N(C)C)CC4)c(C)c3)n2n1` [Compound B95, 1-(5-((4-amino-2-butoxyimidazo[2,1-f][1,2,4]triazin-7-yl)methyl)-3-methylpyridin-2-yl)-N,N-dimethylpiperidine-4-carboxamide] stands 4380 nM.
`CCCCNc1nc(N)c2ncc(Cc3cnc(N4CCC(CN(C)C)CC4)c(C)c3)n2n1` [Compound B96, N2-butyl-7-((6-(4-((dimethylamino)methyl)piperidin-1-yl)-5-methylpyridin-3-yl)methyl)imidazo[2,1-f][1,2,4]triazine-2,4-diamine] gave an EC50 of 17 nM.
Consider `CCCCOc1nc(N)c2ncc(Cc3cnc(N4CCN[C@H](C)C4)c(C)c3)n2n1` [Compound B97, (R)-2-butoxy-7-((5-methyl-6-(3-methylpiperazin-1-yl)pyridin-3-yl)methyl)imidazo[2,1-f][1,2,4]triazin-4-amine], for which the EC50 was found to be 163 nM.
The figure for `CCCCOc1nc(N)c2ncc(Cc3ccc(N4CCN[C@H](C)C4)c(C)c3)n2n1` [Compound B98, (R)-2-butoxy-7-(3-methyl-4-(3-methylpiperazin-1-yl)benzyl)imidazo[2,1-f][1,2,4]triazin-4-amine] is 1130 nM; for `CCCCOc1nc(N)c2ncc(Cc3ccc(N4CCNCC4)c(OCCC)c3)n2n1` [Compound B99, 2-butoxy-7-(4-(piperazin-1-yl)-3-propoxybenzyl)imidazo[2,1-f][1,2,4]triazin-4-amine] it is 926 nM; for `COCCOCCOCCOCCOc1nc(N)c2ncc(Cc3cnc(N4CCNCC4)c(C)c3)n2n1` [Compound B100, 2-((2,5,8,11-tetraoxatridecan-13-yl)oxy)-7-((5-methyl-6-(piperazin-1-yl)pyridin-3-yl)methyl)imidazo[2,1-f][1,2,4]triazin-4-amine] it is above 10000 nM.
The figure for `CCCCOc1nc(N)c2ncc(Cc3cnc(N4CCC5(CCNCC5)C4)c(C)c3)n2n1` [Compound B101, 2-butoxy-7-((5-methyl-6-(2,8-diazaspiro[4.5]decan-2-yl)pyridin-3-yl)methyl)imidazo[2,1-f][1,2,4]triazin-4-amine] is 425 nM; for `CCCCOc1nc(N)c2ncc(Cc3cnc(N4CC5(CCNCC5)C4)c(C)c3)n2n1` [Compound B102, 2-butoxy-7-((5-methyl-6-(2,7-diazaspiro[3.5]nonan-2-yl)pyridin-3-yl)methyl)imidazo[2,1-f][1,2,4]triazin-4-amine] it is 464 nM.
The figure for `CCCCOc1nc(N)c2ncc(Cc3cnc(N4CCC(OC)CC4)c(C)c3)n2n1` [Compound B103, 2-butoxy-7-((6-(4-methoxypiperidin-1-yl)-5-methylpyridin-3-yl)methyl)imidazo[2,1-f][1,2,4]triazin-4-amine] is 7960 nM; for `CCCCOc1nc(N)c2ncc(Cc3cnc(N4CCC(COC)CC4)c(C)c3)n2n1` [Compound B104, 2-butoxy-7-((6-(4-(methoxymethyl)piperidin-1-yl)-5-methylpyridin-3-yl)methyl)imidazo[2,1-f][1,2,4]triazin-4-amine] it is above 10000 nM.
Take `CCCCOc1nc(N)c2ncc(Cc3cnc(N4CCC(CN(C)C)C4)c(C)c3)n2n1` (stereo not drawn) [Compound B105, 2-butoxy-7-((6-(3-((dimethylamino)methyl)pyrrolidin-1-yl)-5-methylpyridin-3-yl)methyl)imidazo[2,1-f][1,2,4]triazin-4-amine]: the half-maximal effective concentration (EC50) worked out at 177 nM.
The figure for `CCCCOc1nc(N)c2ncc(Cc3cnc(N4CCC(CNC)CC4)c(C)c3)n2n1` [Compound B106, 2-butoxy-7-((5-methyl-6-(4-((methylamino)methyl)piperidin-1-yl)pyridine-3-yl)methyl)imidazo[2,1-f][1,2,4]triazin-4-amine] is 71 nM; for `CCCCOc1nc(N)c2ncc(Cc3cnc(N4CCN(CCOC)CC4)c(C)c3)n2n1` [Compound B107, 2-butoxy-7-((6-(4-(2-methoxyethyl)piperazin-1-yl)-5-methylpyridin-3-yl)methyl)imidazo[2,1-f][1,2,4]triazin-4-amine] it is 185 nM.
Under `CCCCOc1nc(N)c2ncc(Cc3cnc(N4CCC(N5CCOCC5)CC4)c(C)c3)n2n1` [Compound B108, 2-butoxy-7-((5-methyl-6-(4-morpholinopiperidin-1-yl)pyridine-3-yl)methyl)imidazo[2,1-f][1,2,4]triazin-4-amine] stands 159 nM; under `CCCCOc1nc(N)c2ncc(Cc3cnc(N4CCC(CN5CCOCC5)CC4)c(C)c3)n2n1` [Compound B109, 2-butoxy-7-((5-methyl-6-(4-(morpholinomethyl)piperidin-1-yl)pyridin-3-yl)methyl)imidazo[2,1-f][1,2,4]triazin-4-amine], 161 nM; under `CCCCOc1nc(N)c2ncc(Cc3cnc(N4CCC(CCN(C)C)CC4)c(C)c3)n2n1` [Compound B110, 2-butoxy-7-((6-(4-(2-(dimethylamino)ethyl)piperidin-1-yl)-5-methylpyridin-3-yl)methyl)imidazo[2,1-f][1,2,4]triazin-4-amine], 43 nM.
`CCCC(C)Oc1nc(N)c2ncc(Cc3cnc(N4CCN(C(=O)CNC)CC4)c(C)c3)n2n1` (stereo not drawn) [Compound B111, 1-(4-(5-((4-amino-2-(pentan-2-yloxy)imidazo[2,1-f][1,2,4]triazin-7-yl)methyl)-3-methylpyridin-2-yl)piperazin-1-yl)-2-(methylamino)ethan-1-one] showed a half-maximal effective concentration (EC50) of 9.8 nM.
Under `CCC(C)Oc1nc(N)c2ncc(Cc3cnc(N4CCNCC4)c(C)c3)n2n1` (stereo not drawn) [Compound B112, 2-(sec-butoxy)-7-((5-methyl-6-(piperazin-1-yl)pyridin-3-yl)methyl)imidazo[2,1-f][1,2,4]triazin-4-amine] stands 37 nM; under `CCC(C)COc1nc(N)c2ncc(Cc3cnc(N4CCNCC4)c(C)c3)n2n1` (stereo not drawn) [Compound B113, 7-((5-methyl-6-(piperazin-1-yl)pyridin-3-yl)methyl)-2-(2-methylbutoxy)imidazo[2,1-f][1,2,4]triazin-4-amine], 447 nM.
Under `CCCCOc1nc(N)c2ncc(Cc3cnc(N4CCN(CC)CC4)c(C)c3)n2n1` [Compound B114, 2-butoxy-7-((6-(4-ethylpiperazin-1-yl)-5-methylpyridin-3-yl)methyl)imidazo[2,1-f][1,2,4]triazin-4-amine] stands 168 nM.

For the origin of these results see US12612407B2, “Imidazo[2,1-f][1,2,4]triazin-4-amine derivatives as TLR7 agonist” (BEIGENE, LTD., priority 2020, dated 2026).
